{"source": "patent US20100298348A1", "about": "“Method of Decreasing Ubiquitylated Protein Levels” (priority 2009, published 2010)", "key": {"[1]": {"system": "acetylcholine (ACh) and dopamine", "test": "Acetylcholine and dopamine release and extracellular concentrations"}, "BACE": {"system": "BACE", "test": "Western blot of BACE in cynomolgus monkey hippocampus", "type": "in vivo", "details": "male cynomolgus monkeys, 9 months oral, 100 mg/kg/day", "experimental": "(§1) Male cynomolgus monkeys were treated for 9 months with 0, 10, 30 or 100 mg/kg/day ST101 with once daily oral drug administration. Hippocampal brain samples were analyzed in Western blots and ELISAs for APP fragments and Aβ. […] Reductions in a ˜55-kDa fragment were also seen with treatment in these groups. Black outlines depict image level enhancement in Adobe Photoshop CS4, to better visualize weak signals. […] However, long exposures reveal the presence of the 17-kDa APP fragment only in treated monkeys (antibody CT20, Calbiochem). This fragment was not detected in either the 30 or 10 mg/kg/day ST101 groups. Error bars indicate SEM (standard error of the mean) and * indicates statistical significance versus control (p<0.05). (S: ST101-treated animals, versus C: control animals)."}, "α-tubulin": {"system": "α-tubulin", "test": "Western blot of α-tubulin and acetylated α-tubulin in 3xTg-AD mouse brain", "type": "in vivo", "details": "3xTg-AD mice 12 months old, 5 mg/kg/day, 2 months", "description": "The overexposed band near the bottom of the figure represents α-tubulin. Above this band a ladder of immuno-reactive bands was detected by the antibody."}, "sAPP-beta": {"system": "sAPP-beta", "test": "Western blot of sAPP-beta in 3xTg-AD mouse brain", "type": "in vivo", "details": "3xTg-AD mice ~14.5 months old, 5 mg/kg/day in drinking water, 2 months as printed", "experimental": "FIG. 10B describes a reduction of fragment C99. C99 is created by BACE cleavage which leads to release of soluble APP, specifically sAPP-beta. […] The Western blot was obtained using an sAPP-beta specific antibody in brain extracts from ST101 treated 3×TG-AD mice (S) versus control mice (C). Animals were approximately 14.5 months old at sacrifice after 2 months of treatment with ST101 at 5 mg/kg/day in drinking water."}, "ubiquitylated proteins": {"system": "ubiquitylated proteins", "test": "Anti-ubiquitin Western blot of 3xTg-AD mouse brain", "type": "in vivo", "experimental": "Brain extracts from 12-month-old 3xTg-AD mice that had been treated with ST101 (S) at 5/mg/kg/day in drinking water over 2 months were analyzed in Western blots using an anti-ubiquitin antibody (Dako no. Z0448). […] The control (C) samples show a typical high molecular weight “smear” representing a mixture of ubiquitylated proteins."}, "BACE1": {"system": "BACE1", "test": "Western blot of BACE in 3xTg-AD mouse brain", "type": "in vivo", "details": "3xTg-AD mice ~12 months old, 5 mg/kg/day, 2 months", "experimental": "APP C-terminal fragments C99 and C83 are created by beta-secretase and alpha-secretase cleavage respectively. The reduction of both C99 and C83 induced by ST101 could therefore be due to reduction or inhibition of secretases. This hypothesis was tested using Western blots of brain extracts from 3xTg-AD mice from the initial experiment in 12-month-old animals treated with ST101 for 2 months. The only beta-secretase is BACE1 and the constitutive alpha-secretase is ADAM10.\nWestern blots were probed with antibodies against BACE1 and ADAM10. FIG. 11A is a series of Western blots depicting levels of proADAM10, ADAM10, proBACE, BACE, Presenilinl and APP-CFTs in brain extracts from ST101 treated 3×TG-AD mice (S) versus control mice (C). C: control brain extract. S: ST101-treated brain extract. Animals were approximately 12 months old at sacrifice after 2 months of treatment with ST101 at 5 mg/kg/day."}, "Aβ42": {"system": "Aβ42", "test": "Sandwich ELISA of Aβ42 in cynomolgus monkey hippocampal lysates, 9-month study", "type": "in vivo", "details": "male cynomolgus monkeys, 9 months oral", "experimental": "as §1"}, "beta-tubulin": {"system": "beta-tubulin", "test": "Western blot of beta-tubulin in cynomolgus monkey hippocampus", "type": "in vivo", "details": "cynomolgus monkeys of Example 19, hippocampal brain samples", "description": "The effects on tubulin were confirmed in the group of cynomolgus monkeys described in example 19."}, "proteasome": {"system": "proteasome", "test": "Western blot of proteasome subunits in brain extracts", "type": "in vivo, mouse", "details": "12-month-old 3xTg-AD mice, 5 mg/kg/day, 2 months", "experimental": "Brain extracts from 12-month-old 3xTg-AD mice (described in Example 15) that had been treated with ST101 at 5/mg/kg/day in drinking water over 2 months were analyzed in Western blots using an anti-proteasome alpha-subunit antibody."}}}
{"compound": "O=C1N=C2C=CC=CN2C12Cc1ccccc1C2", "note": "[ST101, spiro(imidazo[1,2-a]pyridin-2(3H)-one-3,2′-indan)]", "values": [{"measurement": "nicotine-stimulated release of acetylcholine (ACh)", "setting": "[1]", "value": "potentiates"}, {"measurement": "extracellular ACh concentrations", "setting": "[1]; cerebral cortex", "value": "increases"}, {"measurement": "extracellular concentration of ACh", "setting": "[1]; hippocampus", "value": "increases"}, {"measurement": "extracellular concentration of dopamine", "setting": "[1]; hippocampus", "value": "increases"}, {"measurement": "BACE level", "setting": "BACE", "value": "no differences"}, {"measurement": "tubulin degradation products", "setting": "α-tubulin; acetylated α-tubulin antibody", "value": "reduced"}, {"measurement": "high molecular weight ladder of α-tubulin immuno-reactive bands (presumably ubiquitylated tubulin)", "setting": "α-tubulin; α-tubulin antibody", "value": "either absent or significantly reduced"}, {"measurement": "sAPP-beta", "setting": "sAPP-beta", "value": "concomitant reduction"}, {"measurement": "ubiquitylated proteins", "setting": "ubiquitylated proteins; 3xTg-AD mice 12 months old, 5 mg/kg/day in drinking water, 2 months", "value": "profound reduction"}, {"measurement": "monomeric ubiquitin concentrations", "setting": "ubiquitylated proteins; 3xTg-AD mice 12 months old, 5 mg/kg/day, 2 months, data not shown", "value": "largely unaffected"}, {"measurement": "ubiquitylated proteins", "setting": "ubiquitylated proteins; 3xTg-AD mice 14.5 months old, 5 mg/kg/day, ~2.5 months", "value": "significant reduction"}, {"measurement": "BACE protein level", "setting": "BACE1", "value": "profound reduction"}, {"measurement": "Pro-BACE protein level", "setting": "BACE1", "value": "not significantly affected"}, {"measurement": "Aβ42 in hippocampal lysates", "setting": "Aβ42; 10 mg/kg/day", "value": "significant increases"}, {"measurement": "Aβ42 in hippocampal lysates", "setting": "Aβ42; 30 mg/kg/day", "value": "significant decreases"}, {"measurement": "Aβ42 in hippocampal lysates", "setting": "Aβ42; 100 mg/kg/day", "value": "significant decreases"}, {"measurement": "beta-tubulin degradation products", "setting": "beta-tubulin", "value": "increase"}, {"measurement": "concentration of proteasome alpha subunits", "setting": "proteasome", "value": "No difference is apparent"}, {"measurement": "high molecular weight bands reactive with proteasome alpha-subunit antibody", "setting": "proteasome", "value": "clear decrease"}, {"measurement": "proteasome subunit beta 2i", "setting": "proteasome", "value": "did not reveal changes"}, {"measurement": "proteasome subunit beta 5i", "setting": "proteasome", "value": "did not reveal changes"}]}
